Some test systems named below: TK-10 renal; NCI-H522 lung; SNB-75 CNS; OVCAR-3 ovarian; RPMI-8226 leukemia; HOP-62 NSCLC; CCRF-CEM leukemia; NCI-H226 lung; MDA-N; EKVX NSCLC; UO-31 renal; SR leukemia.
What all share (assay): inhibition of tumour cell growth, NCI panel, 48 h

The source of these data is PubChem BioAssay (NCI).

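Compound exposure: 48 hours, 5 concentrations, 96-well plates. TGI: concentration producing complete growth inhibition.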

In the case of `CC(=O)Nc1c(C(=N)C#N)ncn1CCO`, the TGI with TK-10 renal, with NCI-H522 lung, in the test on SNB-75 CNS, in the test on OVCAR-3 ovarian, in the test on RPMI-8226 leukemia and with HOP-62 NSCLC was more than 100 µM in each case. The TGI with CCRF-CEM leukemia, in the test with NCI-H226 lung, in the test with MDA-N and with EKVX NSCLC was more than 100 µM each time.
Turning to `COc1cc(Nc2nc3cc(C(F)(F)F)ccc3nc2C(=O)O)cc(OC)c1OC`, the TGI in the test on TK-10 renal is more than 100 µM; with NCI-H522 lung it was more than 100 µM; with SNB-75 CNS it was more than 100 µM; with OVCAR-3 ovarian, more than 100 µM; with HOP-62 NSCLC, more than 100 µM; with CCRF-CEM leukemia it was 90.8 µM. The TGI with UO-31 renal, with NCI-H226 lung, in the test on MDA-N and in the test on EKVX NSCLC was more than 100 µM in each case.
For `CC(=O)NC1C(Sc2ncn(C3OC(CO)C(O)C(O)C3NC(C)=O)n2)OC(CO)C(O)C1O` (centres undefined), the TGI in the test on TK-10 renal, in the test with NCI-H522 lung, in the test with OVCAR-3 ovarian, with RPMI-8226 leukemia, in the test with HOP-62 NSCLC and with CCRF-CEM leukemia was more than 100 µM in each case. The TGI with MDA-N and in the test with EKVX NSCLC was more than 100 µM throughout.
For `NC(=O)c1cn(Cc2ccccc2)c(=O)n1Cc1ccccc1`, the TGI with TK-10 renal, with NCI-H522 lung, with SNB-75 CNS, in the test on OVCAR-3 ovarian, in the test with RPMI-8226 leukemia and with HOP-62 NSCLC was more than 100 µM throughout. Further, the TGI in the test with CCRF-CEM leukemia, in the test with UO-31 renal, with NCI-H226 lung and in the test on EKVX NSCLC was more than 100 µM each time.
Turning to `CC(=O)O[C@]12CCCCCC1C1(O)C(O)CCCCC12` (some centres undefined), the TGI in the test with TK-10 renal, in the test with NCI-H522 lung, in the test with SNB-75 CNS, in the test with RPMI-8226 leukemia, in the test with SR leukemia and with HOP-62 NSCLC was more than 100 µM throughout. Moreover, the TGI in the test on CCRF-CEM leukemia, in the test on UO-31 renal, with NCI-H226 lung and with EKVX NSCLC was more than 100 µM each time.
With `COc1ccc2nc3cc(Cl)ccc3c(Sc3ccc(NC(C)=O)cc3)c2c1`, the TGI was more than 51.1 µM in the test with TK-10 renal; 7.85 µM in the test on NCI-H522 lung; more than 54.9 µM in the test on SNB-75 CNS; more than 22.8 µM with OVCAR-3 ovarian; 83.8 µM in the test with RPMI-8226 leukemia; 16.1 µM with SR leukemia. The TGI is more than 60.2 µM in the test on HOP-62 NSCLC; more than 100 µM in the test on CCRF-CEM leukemia; more than 33.4 µM in the test on UO-31 renal; more than 30.9 µM in the test on NCI-H226 lung; more than 23.8 µM in the test on EKVX NSCLC.
In the case of `Cc1ccc(NC(=O)C(=O)C2C(=O)NC(=O)NC2=O)cc1C`, the TGI in the test on TK-10 renal, in the test on NCI-H522 lung, in the test on SNB-75 CNS, in the test with OVCAR-3 ovarian, in the test with RPMI-8226 leukemia and in the test on SR leukemia was more than 100 µM throughout. The TGI with HOP-62 NSCLC, in the test on CCRF-CEM leukemia, in the test on UO-31 renal, in the test on NCI-H226 lung and with EKVX NSCLC was more than 100 µM each time.
On to `O=C1c2ccccc2C(=O)N1C/C=N/NS(=O)(=O)c1ccc(Br)cc1`, for which the TGI in the test on TK-10 renal, with NCI-H522 lung, in the test with SNB-75 CNS, in the test on OVCAR-3 ovarian, with RPMI-8226 leukemia and in the test on SR leukemia was more than 100 µM in each case. Further, the TGI with HOP-62 NSCLC, in the test with CCRF-CEM leukemia, in the test with UO-31 renal, in the test on NCI-H226 lung and with EKVX NSCLC was more than 100 µM in each case.
Turning to `COc1cc(-c2nnc3n2NC=C(C(=O)O)S3)cc(OC)c1OC`, the TGI in the test on TK-10 renal is more than 100 µM; in the test on NCI-H522 lung, more than 100 µM; in the test with SNB-75 CNS it was more than 100 µM; in the test with OVCAR-3 ovarian it was more than 100 µM; in the test on RPMI-8226 leukemia, more than 68.7 µM; with SR leukemia, more than 100 µM. Moreover, the TGI is more than 100 µM in the test on HOP-62 NSCLC; more than 67.5 µM in the test with CCRF-CEM leukemia; more than 100 µM with UO-31 renal; more than 100 µM in the test with NCI-H226 lung; more than 100 µM in the test on EKVX NSCLC.
With `CC(NC(=O)c1c(O)[nH]c(=S)[nH]c1=O)c1ccc([N+](=O)[O-])cc1` (centres undefined), the TGI with TK-10 renal was more than 100 µM; in the test on SNB-75 CNS, 73.3 µM; in the test with OVCAR-3 ovarian, more than 100 µM; in the test with RPMI-8226 leukemia, more than 100 µM; in the test on HOP-62 NSCLC, more than 100 µM; with CCRF-CEM leukemia it was more than 100 µM. Also, the TGI in the test with UO-31 renal, in the test on NCI-H226 lung, with MDA-N and with EKVX NSCLC was more than 100 µM each time.
On to `C=C1CC[C@H]2C(=O)OC(c3ccoc3)C[C@]2(C)C/C=C\C=C/1C(=O)OC` (some centres undefined), for which the TGI with TK-10 renal, with SNB-75 CNS, in the test with OVCAR-3 ovarian, with HOP-62 NSCLC, with UO-31 renal and in the test on NCI-H226 lung was more than 25 µM throughout. Besides, the TGI in the test on MDA-N and with EKVX NSCLC was more than 25 µM each time.
As for `C1COCCSC2=C(SCCO1)SC(=C1SC3=C(SCCOCCOCCS3)S1)S2`, the TGI with TK-10 renal is more than 100 µM; in the test on NCI-H522 lung, more than 100 µM; with SNB-75 CNS, 51.4 µM; with OVCAR-3 ovarian it was more than 100 µM; in the test on SR leukemia, more than 100 µM; in the test with HOP-62 NSCLC it was more than 100 µM. Also, the TGI with CCRF-CEM leukemia, in the test on UO-31 renal, in the test with NCI-H226 lung and in the test on EKVX NSCLC was more than 100 µM throughout.
As to `O=C(NCCN1CCOCC1)c1ccc(I)cc1`, the TGI in the test with TK-10 renal, in the test with SNB-75 CNS, in the test with OVCAR-3 ovarian, in the test on RPMI-8226 leukemia, with SR leukemia and in the test with CCRF-CEM leukemia was more than 100 µM in each case. For the same molecule, the TGI with UO-31 renal, in the test with NCI-H226 lung and with EKVX NSCLC was more than 100 µM each time.
